Measured values published in ChEMBL document CHEMBL1147457, “Thiourea inhibitors of herpes viruses. Part 2: N-Benzyl-N'-arylthiourea inhibitors of CMV” (Bioorg Med Chem Lett, 2004).

Key:
[1] = tested on: Respiratory syncytial virus; experiment: Inhibitory activity against respiratory syncytial virus was determined; assay type: functional, organism-based; settings: human respiratory syncytial virus
Human alphaherpesvirus 2 = experiment: Inhibitory activity against herpes simplex virus was determined; assay type: functional, organism-based
Cytomegalovirus = experiment: Inhibitory activity against cytomegalo virus was determined; assay type: functional, organism-based; settings: Human betaherpesvirus 5
[2] = Inhibitory activity against MTS host cell toxicity was determined; assay type: functional
Human alphaherpesvirus 3 = experiment: Inhibitory activity against varicella zoster virus was determined; assay type: functional, organism-based

## O=C(Nc1ccc(N/C(S)=N/C(c2ccccc2)c2cc(C(F)(F)F)cc(C(F)(F)F)c2)cc1)c1csnn1 (configuration not stated)
[1]
  IC50: > 5 µM
Human alphaherpesvirus 2
  IC50: > 5 µM
Cytomegalovirus
  IC50: 0.002 µM
[2]
  IC50: > 7.5 µM
Human alphaherpesvirus 3
  IC50: > 3.7 µM

## C[C@@H](/N=C(\S)Nc1ccc(NC(=O)c2cscn2)nc1)c1cc(C(F)(F)F)cc(C(F)(F)F)c1
[1]
  IC50: 1 µM
Human alphaherpesvirus 2
  IC50: > 5 µM
Cytomegalovirus
  IC50: 0.0028 µM
[2]
  IC50: > 7.5 µM
Human alphaherpesvirus 3
  IC50: > 3.7 µM

## C[C@H](/N=C(\S)Nc1ccc(NC(=O)c2cscn2)nc1)c1cc(C(F)(F)F)cc(C(F)(F)F)c1
[1]
  IC50: > 5 µM
Human alphaherpesvirus 2
  IC50: > 5 µM
Cytomegalovirus
  IC50: 0.002 µM
[2]
  IC50: > 7.5 µM
Human alphaherpesvirus 3
  IC50: > 3.7 µM

## O=C(Nc1ccc(N/C(S)=N/Cc2cc(C(F)(F)F)cc(C(F)(F)F)c2)cn1)c1csnn1
[1]
  IC50: > 5 µM
Human alphaherpesvirus 2
  IC50: > 5 µM
Cytomegalovirus
  IC50: 0.0044 µM
[2]
  IC50: > 7.5 µM
Human alphaherpesvirus 3
  IC50: > 3.7 µM

## O=C(Nc1ccc(N/C(S)=N/Cc2cc(C(F)(F)F)cc(C(F)(F)F)c2)cc1)c1csnn1
[1]
  IC50: > 5 µM
Human alphaherpesvirus 2
  IC50: > 5 µM
Cytomegalovirus
  IC50: 0.002 µM
Human alphaherpesvirus 3
  IC50: > 5 µM

## C[C@H](/N=C(\S)Nc1ccc(NC(=O)c2csnn2)nc1)c1cc(C(F)(F)F)cc(C(F)(F)F)c1
[1]
  IC50: > 5 µM
Human alphaherpesvirus 2
  IC50: 4.1 µM
Cytomegalovirus
  IC50: 0.003 µM
[2]
  IC50: 8 µM
Human alphaherpesvirus 3
  IC50: > 3.7 µM

## C[C@H](/N=C(\S)Nc1ccc(NC(=O)c2csnn2)cc1)c1cc(C(F)(F)F)cc(C(F)(F)F)c1
[1]
  IC50: > 5 µM
Human alphaherpesvirus 2
  IC50: > 5 µM
Cytomegalovirus
  IC50: 0.003 µM
[2]
  IC50: > 7.5 µM
Human alphaherpesvirus 3
  IC50: > 3.7 µM

## CCCC(/N=C(\S)Nc1ccc(NC(=O)c2csnn2)cc1)c1cc(C(F)(F)F)cc(C(F)(F)F)c1 (configuration not stated)
[1]
  IC50: > 5 µM
Human alphaherpesvirus 2
  IC50: > 5 µM
Cytomegalovirus
  IC50: 0.001 µM
[2]
  IC50: > 7.5 µM
Human alphaherpesvirus 3
  IC50: > 3.7 µM

## C[C@@H](/N=C(\S)Nc1ccc(NC(=O)c2cscn2)cc1)c1cc(C(F)(F)F)cc(C(F)(F)F)c1
[1]
  IC50: 2 µM
Human alphaherpesvirus 2
  IC50: > 5 µM
Cytomegalovirus
  IC50: 0.0015 µM
[2]
  IC50: > 7.5 µM
Human alphaherpesvirus 3
  IC50: > 3.7 µM

## O=C(Nc1ccc(/N=C(\S)Nc2cc(C(F)(F)F)cc(C(F)(F)F)c2)cc1)c1csnn1
[1]
  IC50: 5 µM
Human alphaherpesvirus 2
  IC50: > 5 µM
Cytomegalovirus
  IC50: 0.037 µM
Human alphaherpesvirus 3
  IC50: > 5 µM

## CCC(/N=C(\S)Nc1ccc(NC(=O)c2cscn2)cc1)c1cc(C(F)(F)F)cc(C(F)(F)F)c1 (configuration not stated)
[1]
  IC50: > 5 µM
Human alphaherpesvirus 2
  IC50: 4.1 µM
Cytomegalovirus
  IC50: 0.0002 µM
[2]
  IC50: > 7.5 µM
Human alphaherpesvirus 3
  IC50: > 3.7 µM

## CC(C)(/N=C(\S)Nc1ccc(NC(=O)c2csnn2)cc1)c1cc(C(F)(F)F)cc(C(F)(F)F)c1
[1]
  IC50: > 5 µM
Human alphaherpesvirus 2
  IC50: > 5 µM
Cytomegalovirus
  IC50: 0.004 µM
[2]
  IC50: > 7.5 µM
Human alphaherpesvirus 3
  IC50: > 3.7 µM

## CC(/N=C(\S)Nc1ccc(NC(=O)c2csnn2)cc1)c1cc(C(F)(F)F)cc(C(F)(F)F)c1 (configuration not stated)
[1]
  IC50: > 5 µM
Human alphaherpesvirus 2
  IC50: > 5 µM
Cytomegalovirus
  IC50: 0.003 µM
[2]
  IC50: > 7.5 µM
Human alphaherpesvirus 3
  IC50: > 3.7 µM

## O=C(Nc1ccc(/N=C(\S)Nc2cc(C(F)(F)F)cc(C(F)(F)F)c2)cc1)c1cscn1
[1]
  IC50: > 5 µM
Human alphaherpesvirus 2
  IC50: > 5 µM
Cytomegalovirus
  IC50: 0.016 µM
Human alphaherpesvirus 3
  IC50: > 5 µM

## CCC(/N=C(\S)Nc1ccc(NC(=O)c2csnn2)cc1)c1cc(C(F)(F)F)cc(C(F)(F)F)c1 (configuration not stated)
[1]
  IC50: > 5 µM
Human alphaherpesvirus 2
  IC50: 5 µM
Cytomegalovirus
  IC50: 0.001 µM
[2]
  IC50: > 7.5 µM
Human alphaherpesvirus 3
  IC50: > 3.7 µM

## C[C@H](/N=C(\S)Nc1ccc(NC(=O)c2cscn2)cc1)c1cc(C(F)(F)F)cc(C(F)(F)F)c1
[1]
  IC50: > 5 µM
Human alphaherpesvirus 2
  IC50: > 5 µM
Cytomegalovirus
  IC50: 0.0006 µM
[2]
  IC50: > 7.5 µM
Human alphaherpesvirus 3
  IC50: > 3.7 µM
